Reference: patent US12559769B2, “Methods and compositions for the activation of tumor cytotoxicity via human gamma-delta t-cells” (priority 2017, dated 2026)

Test system: Vγ9Vδ2 T cells
Experiment: Activation of Vγ9Vδ2 T cells (TNF-α, flow cytometry) by HepG2 liver carcinoma cells co-cultured with expanded PBMC
Assay type: cell-based, human
Protocol: HepG2 cells were transduced with LV-vector, LV-BTN3A3 (R381H), or LV-shFDPS-BTN3A3 (R381H). Three days after transduction, cells were treated with or without 1 μM zoledronic acid. After 24 hours, the transduced HepG2 cells were co-cultured with 5×10^5 PBMC cells and IL-2 in a round bottom 96 well plate for 4 hours. The PBMC cells were pre-stimulated with zoledronic acid and IL-2 for 11 days to expand Vγ9Vδ2 T cells. After staining for Vγ9Vδ2 and TNF-α using fluorophore-conjugated anti TCR-Vδ2 and anti-TNF-α antibody, cells were analyzed via flow cytometry. Live cells were gated, and Vδ2+ and TNF-α+cells were selected on a dot blot. The activated cytotoxic Vγ9Vδ2 T cells appeared in the upper right quadrant of flow cytograms. Without zoledronic acid, the percent of TNF-α expressing Vγ9Vδ2 T cells was 0.6% with LV-vector, 9.5% with BTN3A3 (R381H), and 13.2% with the combination of LV-shFDPS-BTN3A3 (R381H). With zoledronic acid, the percent of TNF-α expressing Vγ9Vδ2 T cells was 7.2% with LV-vector, 17.8% with BTN3A3 (R381H), and 30.1% with the combination of LV-shFDPS-BTN3A3 (R381H).
HepG2 cells were transduced with LV-shFDPS or LV-shFDPS-IL-2. Three days after transduction, cells were treated with or without 1 μM zoledronic acid. After 24 hours, the transduced HepG2 cells were co-cultured with 5×10^5 PBMC cells and with or without IL-2 in a round bottom 96 well plate for 4 hours. The PBMC cells were pre-stimulated with zoledronic acid and IL-2 for 11 days to expand Vγ9Vδ2 T cells. After staining for Vγ9Vδ2 and TNF-α using fluorophore-conjugated anti TCR-Vδ2 and anti-TNF-α antibody, cells were analyzed via flow cytometry. Live cells were gated, and Vδ2+ and TNF-α+ cells were selected on a dot blot. The activated cytotoxic Vγ9Vδ2 T cells appeared in the upper right quadrant of flow cytograms. With only zoledronic acid, the percent of TNF-α expressing Vγ9Vδ2 T cells was 7.5% with LV-shFDPS and 20.1% with LV-shFDPS-IL-2. With zoledronic acid and IL-2, the percent of TNF-α expressing Vγ9Vδ2 T cells was 27.8% with LV-shFDPS and 24.7% with LV-shFDPS-IL-2.
HepG2 liver carcinoma cells were transduced with Lv-shFDPS, Lv-FDPS-IL-15 (expressing both shRNAFDPS and the human cytokine interleukin 15) or Lv-control and cultured for 72 hours. Zoledronic acid (1 μM) was added to (1) cells transduced with Lv-shFDPS, (2) cells transduced with Lv-FDPS-IL-15, and (3) HepG2 cells transduced with Lv-control. Treated cells were cultured for 24 hours. Lv-shFDPS transduced cells, Lv-FDPS-IL-15 transduced cells, and Lv-control transduced cells were co-cultured with PBMC enriched for Vγ9Vδ2 cells plus a protein transport inhibitor (BD GolgiStop) for 4 hours. After 4 hours of stimulation, cells were collected and labeled with Vδ2 phycoerythrin (PE) and TNFαallophycocyanin (APC), and the labeled cells were analyzed by flow cytometry.
HepG2 cells were transduced with LV-control or LV-FDPS shRNA #4 (SEQ ID NO: 4) or LV-GGPS1 shRNA #1 (SEQ ID NO: 70) for 3 days. Two days after transduction, cells were treated with or without 1 μM zoledronic acid. After 24 hours, the transduced HepG2 cells were co-cultured for 4 hours with 5×10^5 PBMC cells in a round bottom 96 well plate. The PBMC cells had been pre-stimulated with zoledronic acid plus IL-2 for at least 11 days to expand Vγ9Vδ2 T cells. After staining for Vγ9Vδ2 and TNF-α using fluorophore-conjugated anti TCR-Vδ2 and anti-TNF-α antibody, cells were analyzed via flow cytometry. Live cells were gated; Vδ2+ and TNF-α+ cells were identified on a dot blot. The activated cytotoxic Vγ9Vδ2 T cells appeared in the upper right quadrant of the flow cytograms. Without zoledronic acid, LV-control stimulated 0.36% of TNF-α expressing Vγ9Vδ2 T cells whereas LV-FDPS shRNA #4 (SEQ ID NO: 4) stimulated 0.9% and LV-GGPS1 #1 (SEQ ID NO: 70) shRNA stimulated 0.58%. […]

[1] = Example 26, FIG. 30, LV-FDPS shRNA #4 transduced HepG2 cells, drug 1 μM, 24 hours
[2] = Example 26, FIG. 30, LV-control transduced HepG2 cells, 1 μM, 24 hours, untreated 1.82%

| SMILES | percent of TNF-α expressing Vγ9Vδ2 T cells [1] | percent of TNF-α expressing Vγ9Vδ2 T cells [2] | percent of TNF-α expressing Vγ9Vδ2 T cells (Example 26, FIG. 30, LV-FDPS shRNA #4 transduced HepG2 cells, drug 5 μM, 24 hours) | percent of TNF-α expressing Vγ9Vδ2 T cells (Example 26, FIG. 30, LV-control transduced HepG2 cells, 5 μM, 24 hours, untreated 1.82%) | percent of TNF-α expressing Vγ9Vδ2 T cells (Example 4, LV-vector (control) transduced HepG2 cells, 1 μM zoledronic acid) | percent of TNF-α expressing Vγ9Vδ2 T cells (Example 20, LV-control transduced HepG2 cells, 1 μM zoledronic acid) |
| --- | --- | --- | --- | --- | --- | --- |
| COC(=O)[C@H](CCSC)NC(=O)c1ccc(NC[C@@H](N)CS)cc1-c1ccccc1 [FT1277] | 2.69% | 1.72% | – | – | – | – |
| C=C(CC[C@]12O[C@H](C(=O)O)[C@@](O)(C(=O)O)[C@](C(=O)O)(O1)[C@H](OC(=O)/C=C/[C@@H](C)C[C@@H](C)CC)[C@H]2O)[C@@H](OC(C)=O)[C@H](C)Cc1ccccc1 [zaragozic acid] | – | – | 2.82% | 1.63% | – | – |
| O=P(O)(O)C(O)(Cn1ccnc1)P(=O)(O)O [zoledronic acid] | 50.8% | 3.02% | – | – | 7.2% | 6.88% |
